Measured values taken from US10815219B2, “2,4-diaminoquinazoline derivatives for inhibiting endoplasmic reticulum (ER) stress” (The Board of Regents of the University of Oklahoma, priority 2017, dated 2020).

How the values were obtained:
[1] = system: βTC6 cells; assay: βTC6 cell viability after Tm treatment (MTT); format: cell-based; conditions: Tm 0.25 μg/mL, 72 h, FIG. 3C
Text: To rule out the possibility of an ATP-specific (rather than viability) effect of the compounds, we used the MTT assay, which measures the activity of NAD(P)H-dependent cellular oxidoreductase enzymes, as an orthogonal method to measure cell viability. […] To confirm that the protective effect of 9c on β cells is not INS-1 cell-specific, another β cell line, βTC6, was used. […] To determine whether the protective effect of 9c on β cells is specific to Tm-induced stress, we used another ER stressor, BFA, which inhibits a key guanine nucleotide exchange factor essential for the transport of proteins from the ER to the Golgi, to treat INS-1 cells.
INS-1 cells or βTC6 cells were seeded at 3×10^3 cells/well in a 384-well plate and treated with compounds at the indicated concentrations. After 3 d treatment, the medium was aspirated and 10 μl of MTT reagent (Cayman Chemical, MI, USA, prepared according to manufacturer's instruction) to each well was added and mixed gently for one minute on an orbital shaker. The cells were then incubated for three hours at 37° C. in a CO2 incubator. After incubation, add 100 μl of crystal dissolving solution to each well, and incubate for 4 hours in a 37° C. CO2 incubator. Viability will be measured for the absorbance to each sample at 570 nm using EnVision multilabel plate reader (PerkinElmer, MA, USA).

[2] = system: PDX1 and MafA mRNA; assay: qRT-PCR of β cell transcription factors in Tm-treated INS-1 cells; format: cell-based, rat; conditions: Tm 0.1 μg/mL, 9c 20 μM, 24 h, FIG. 5C, D
Text: ER stress also impairs the most important function of β cells: the biosynthesis and secretion of insulin. Multiple steps of insulin synthesis and secretion are impaired under ER stress; they include insulin gene transcription, insulin mRNA stability, protein translation, and the insulin protein secretory process. First, we examined whether compound 9c could rescue Tm-suppressed mRNA levels of insulin genes. […] Second, we examined whether compound 9c affects the expression of β cell transcription factors PDX1 and MafA, which control β cell identity and the expression of insulin genes. Chronic exposure to supraphysiologic concentrations of glucose and its associated ER stress cause the down-regulation of expression of PDX1 and MafA. Consistent with this notion, Tm decreased the levels of PDX1 and MafA mRNA expression levels in INS-1 cells. […] Next, we explored whether compound 9c re-establishes Tm-impaired glucose-stimulated insulin secretion (GSIS).
INS-1 cells were seeded at 4×10^5 cells/well in 6-well plates and treated with compounds for the indicated times. Total RNA was extracted using TRIzol reagent (Invitrogen, Carlsbad, Calif.) according to the manufacturer's protocol, and 2 μg of total RNA was reverse transcribed using a Superscript kit (Invitrogen). […]

[3] = system: ATF4 and CHOP mRNA; assay: qRT-PCR of ATF4 and CHOP in Tm-treated INS-1 cells; format: cell-based, rat; conditions: Tm 0.1 μg/mL, 9c 20 μM, FIG. 8A, B
Text: (§1) We then determined the effect of 9c on the activation of the PERK pathway in β cells under ER stress. Activated PERK phosphorylates eukaryotic translation initiator factor 2a (eIF2α), which in turn attenuates general protein synthesis to relieve ER load. EIF2α phosphorylation also allows the selective translation of ATF4 mRNA, which encodes a transcription factor that induces the expression of the pro-apoptotic gene C/EBP-homologous protein (CHOP). Thus, we used ATF4 and CHOP expression levels as markers of PERK pathway activation. […] Together, our results that 9c inhibited the ER stress-mediated activation of all three UPR pathways indicate that 9c protects β cell survival by alleviating ER stress.
INS-1 cells were seeded at 4×10^5 cells/well in 6-well plates and treated with compounds for the indicated times. Total RNA was extracted using TRIzol reagent (Invitrogen, Carlsbad, Calif.) according to the manufacturer's protocol, and 2 μg of total RNA was reverse transcribed using a Superscript kit (Invitrogen). Real-time PCR was performed in 96-well format using SYBR Select Master Mix (Applied Biosystems, Foster City, Calif.) with an ABI 7500 PCR system (Applied Biosystems). The primer sequences used are shown in U.S. Ser. No. 62/542,408, Aug. 8, […].

[4] = system: ATF4 and CHOP protein; assay: Western blotting of ATF4 and CHOP in Tm-treated INS-1 cells; format: cell-based, rat; conditions: Tm 0.1 μg/mL, 9c 20 μM, FIG. 8C
Text: as §1
INS-1 cells were seeded in 60-mm dishes at 8×10^5 cells/dish and treated for the indicated times. Cells were then washed with PBS and lysed with lysis buffer (Cell Signaling Technology, Danvers, Mass.) containing EDTA (Thermo, IL) and phosphatase inhibitors (Thermo). Aliquots of 20 μg total protein were separated on 7% SDS-PAGE gels (Life Technologies) and transferred to PVDF membranes (Life Technologies). The membranes were probed with primary antibodies followed by the appropriate HRP-conjugated secondary antibodies (goat anti-rabbit IgG and goat anti-mouse IgG, 1:3000; Santa Cruz Biotechnology, CA, USA). Blots were then developed. […]

Structure (SMILES): COc1ccc(CNc2nc(N3CCCCC3CO)nc3ccccc23)cc1 (racemic) [Compound 9c, (1-(4-((4-methoxybenzyl)amino)quinazolin-2-yl)piperidin-2-yl)methanol]
- viability of βTC6 cells (MTT, NAD(P)H-dependent oxidoreductase activity) [1]: rescued the viability of βTC6 cells in a dose-dependent manner
- PDX1 and MafA mRNA expression levels [2]: almost completely reversed this decrease to normal levels
- ATF4 and CHOP mRNA levels [3]: decrease in both their levels
- ATF4 and CHOP protein levels [4]: decreased ATF4 and CHOP protein levels
